Assay results from patent US5885815A, “Candida isoleucyl-tRNA synthetase proteins, nucleic acids and strains comprising same” (priority 1996, dated 1999).

Tests used:
[1] = biological target: T1, Candida albicans isoleucyl-tRNA synthetase, N-terminal GST-fusion protein (GST-IleRS) encoded by pQB83CAIRS-1, produced in S. cerevisiae, SEQ ID NO:2 (Candida albicans, UniProt Q59RI1, S1065L/S390L); test: Aminoacylation (charging) assay for Km determination, purified GST-IleRS fusion; assay type: biochemical; settings: isoleucine varied; 1.09 nM active enzyme; crude yeast tRNA
T1 construct: thrombin-cleavable), pQB83CAIRS-1, expressed in S. cerevisiae QBY3; CTG codons 390 and 1065 read as Leu by host
Description: (§1) The purified recombinant GST-fusion protein and the product after thrombin cleavage of the GST-fusion protein were tested for their charging activities. Charging assays were based on the procedure of Shepard et al. (Proc. Natl. Acad. Sci. USA 89:9964-68 (1992)). Unless otherwise stated, a typical 50 μl reaction was carried out at 25° C. and contained 4 mM ATP, 20 μM of [^3 H]isoleucine, 90 μM crude tRNA from E. coli (Sigma) or brewer's yeast (Boehringer Mannheim), 10 μM KF, 50 mM HEPES, pH 7.5, 10 mM MgCl2, 10 mM DTT or β-mercaptoethanol and 30 mM NH4 Cl. Purified enzyme was diluted in 100 mM HEPES, pH 7.5, 20 mM DTT and 0.1 mg/ml BSA.
(§2) Reactions were started by the addition of enzyme to the reaction mixture preincubated at 25° C. At various time intervals, 10 μl of the reaction mix was spotted on 3MM Whatman filter circles which were then immersed in ice cold 5% TCA. After three washes in ice cold 5% TCA (at least 15 minutes each), the filters were rinsed once with cold ethanol, once with ether, and air dried. The radioactivity was quantitated by counting the filters in a table top scintillation counter (Packard) in the presence of scintillation fluid (Betafluor; National Diagnostics).
(§3) For determination of Km, various concentrations of one substrate (ATP, amino acid, or tRNA) were used while the other two substrates were kept at saturating concentrations. To test the effect of temperature, the reactions were incubated at 25°, 30°, 37° and 42° C. The Bradford assay was used for determination of total protein. The proportion of active enzyme was calculated by monitoring the formation of the amino acid-adenylate:enzyme complex using a nitrocellulose filter binding assay in the presence of various dilutions of enzyme preparation. A 50 μl reaction contained 1 mM ATP, 1 unit of pyrophosphatase, 50 mM Tris-HCl, pH 5.8, 10 mM MgCl2, 30 mM KCl, 20 mM DTT, 40 μM of radioactively labeled amino acid, and diluted enzyme. […]

CC[C@H](C)[C@H](N)C(=O)O = test: as above; assay type: biochemical, Candida albicans; settings: other: crude yeast tRNA, 2 to 32 μM [3H]isoleucine, 25° C., spread printed in b267: ±4.8 μM
Description: as §1, §2, §3

T1 sequence (Q59RI1 whole entry S390L/N691S/E755D/I1040V/S1065L, the tested form may be a part): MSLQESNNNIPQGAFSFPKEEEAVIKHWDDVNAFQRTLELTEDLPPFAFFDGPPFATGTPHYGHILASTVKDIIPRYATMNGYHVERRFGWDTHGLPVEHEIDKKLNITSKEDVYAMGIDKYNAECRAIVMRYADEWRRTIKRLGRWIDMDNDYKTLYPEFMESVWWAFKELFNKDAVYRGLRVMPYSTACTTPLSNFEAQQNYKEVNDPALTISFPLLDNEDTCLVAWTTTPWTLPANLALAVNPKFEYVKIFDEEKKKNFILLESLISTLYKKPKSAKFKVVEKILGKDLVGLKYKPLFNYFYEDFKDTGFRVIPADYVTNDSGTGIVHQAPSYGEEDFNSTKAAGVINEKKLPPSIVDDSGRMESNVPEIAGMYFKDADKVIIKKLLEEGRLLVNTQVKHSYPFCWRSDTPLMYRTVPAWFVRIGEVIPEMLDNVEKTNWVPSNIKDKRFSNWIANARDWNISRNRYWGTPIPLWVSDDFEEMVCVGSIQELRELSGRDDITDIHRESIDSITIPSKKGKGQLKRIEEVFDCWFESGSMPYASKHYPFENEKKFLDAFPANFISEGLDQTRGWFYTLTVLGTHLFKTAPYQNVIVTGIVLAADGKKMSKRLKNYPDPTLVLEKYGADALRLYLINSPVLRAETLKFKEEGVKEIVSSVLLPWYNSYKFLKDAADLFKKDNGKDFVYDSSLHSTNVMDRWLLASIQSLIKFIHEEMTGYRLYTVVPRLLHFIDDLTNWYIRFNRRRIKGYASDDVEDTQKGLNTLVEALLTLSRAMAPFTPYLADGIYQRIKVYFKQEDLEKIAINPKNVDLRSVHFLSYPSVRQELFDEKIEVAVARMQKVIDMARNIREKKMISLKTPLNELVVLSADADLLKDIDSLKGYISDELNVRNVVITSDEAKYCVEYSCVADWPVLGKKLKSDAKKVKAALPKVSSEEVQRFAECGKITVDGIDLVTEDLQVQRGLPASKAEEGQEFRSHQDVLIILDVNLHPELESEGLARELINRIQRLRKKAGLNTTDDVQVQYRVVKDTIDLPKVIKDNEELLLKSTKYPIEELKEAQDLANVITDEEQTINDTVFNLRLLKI

For `CC[C@H](C)[C@H](N)C(=O)O` [isoleucine], the Vmax [1] was 4 ± 0.5 nM/s and the kcat [1] was 3.7±0.5 per sec.

“Candida albicans isoleucyl-tRNA synthetase, N-terminal GST-fusion protein (GST-IleRS) encoded by pQB83CAIRS-1, produced in S. cerevisiae, SEQ ID NO:2 (Candida albicans SC5314; S1065L/S390L)” gave a Km (CC[C@H](C)[C@H](N)C(=O)O) of 17 µM.
